Test results: US7605121B2, “Oligopeptide lyophilisate, their preparation and use” (AEterna Zentaris GmbH, priority 1993, dated 2009)
Where a SMILES comes first, the peptide text is derived from it. [ ]: non-standard residue; d: D form. dPhe(4-Cl) = N[C@H](Cc1ccc(Cl)cc1)C(=O)O; d2Nal = N[C@H](Cc1ccc2ccccc2c1)C(=O)O; dCit = NC(=O)NCCC[C@@H](N)C(=O)O; d3Pal = N[C@H](Cc1cccnc1)C(=O)O

Experiments:
[1] = Stability of aqueous solution / conventional sterilization; assay type: physicochemical
Protocol: It should be possible to administer the active substance subcutaneously in a dose of 0.1 to 20 mg. Aqueous solutions of the decapeptide are unstable, and, therefore, autoclaving in the container used to distribute it is not possible. […] To obtain an injectable solution it was therefore necessary to develop a lyophilizate.

[2] = Dissolution in 30% volume/volume acetic acid; assay type: physicochemical
Protocol: (§1) The solution is then diluted to a final concentration of 3% peptide, e.g., cetrorelix, with water for injection purposes and mannitol is added. Although it is stated in the literature that the terminal amide group hydrolyzes easily in acid medium, this was not found in the case of cetrorelix. Solutions prepared according to this method caused no difficulties during filtration. The correct amounts of active substance were always found.

[3] = system: endogenous hormone production (LH-FSH, oestradiol); assay: Suppression of endogenous hormone production in in-vitro fertilization treatment; assay type: in vivo, patients; conditions: treatment over 5 days; female sterility / in-vitro fertilization
Text: The premature LH peaks cannot arise and the frequency of hyperstimulation syndrome should be reduced. In addition, less HMG is used in the 2nd phase of therapy, the ovulation triggering phase. This gives this in-vitro fertilization treatment a not inconsiderable cost advantage. In-vitro fertilization is, for example, used when a tube anomaly is present. To perform this treatment it is necessary to precisely monitor the cycle and to establish the time of ovulation as precisely as possible. This has hitherto only been achieved to a limited extent since preovulatory LH increase often occurred too early due to simulation with HMG/HCG, or was not maintained for a sufficiently long period. Avoidance of this premature increase is, however, of critical importance for the success of the treatment in order to precisely determine the time of fertilization. This reduces the physical and mental burden on the patient and makes optimum use of hospital logistics. To achieve this objective with great reliability it is necessary to suppress endogenous hormone production (LH-FSH, oestradiol) as completely as possible in order to simultaneously stimulate follicle maturation through administration of exogenous gonadotrophins (HMG/HCG) and to monitor the hormone status at any time. […]

[4] = Hydrolysis of terminal amide group in acid medium; assay type: physicochemical; conditions: acid medium (acetic acid solution)
Protocol: as §1

## CC(=O)N[C@H](Cc1ccc2ccccc2c1)C(=O)N[C@H](Cc1ccc(Cl)cc1)C(=O)N[C@H](Cc1cccnc1)C(=O)N[C@@H](CO)C(=O)N[C@@H](Cc1ccc(O)cc1)C(=O)N[C@H](CCCNC(N)=O)C(=O)N[C@@H](CC(C)C)C(=O)N[C@@H](CCCNC(=N)N)C(=O)N1CCC[C@H]1C(=O)N[C@H](C)C(N)=O [Cetrorelix] (Ac-[d2Nal][dPhe(4-Cl)][d3Pal]SY[dCit]LRP[dA]-NH2)
[1]; aqueous solution, autoclaving in the container not possible
  Stability of aqueous solutions: unstable
[1]; conventional sterilization, prescribed conditions
  Behaviour during conventional sterilization: tends to decompose
[2]
  Solubility in acetic acid: easily dissolved
[3]
  Suppression achieved: total suppression
[4]
  Hydrolysis of terminal amide group: not found
